One assay addresses NS3/4A BMS strain (Hepatitis C virus genotype 1a, UniProt P27958, C1454S/C1711G). As to the kind of experiment: Recombinant HCV NS3/4A protease complex FRET peptide assay, BMS strain. The class given is biochemical, HCV genotype 1a. As to conditions: enzyme assay. From the text:
(§1) The purpose of this in vitro assay was to measure the inhibition of HCV NS3 protease complexes, derived from the BMS, H77C or J416S strains, as described below, by compounds of the present invention. This assay provides an indication of how effective compounds of the present invention would be in inhibiting HCV […] proteolytic activity.
(§2) Serum from an HCV-infected patient was obtained from Dr. T. Wright, San Francisco Hospital. An engineered full-length cDNA template of the HCV genome (BMS strain) was constructed from DNA fragments obtained by reverse transcription-PCR (RT-PCR) of serum RNA and using primers selected on the basis of homology between other genotype 1a strains. From the determination of the entire genome sequence, a genotype 1a was assigned to the HCV isolate according to the classification of Simmonds et al. (See P Simmonds, K A Rose, S Graham, S W Chan, F McOmish, B C Dow, E A Follett, P L Yap and H Marsden, J. Clin. Microbiol., 31(6), 1493-1503 (1993)). […] The infectious clones, H77C (1a genotype) and J4L6S (1b genotype) were obtained from R. Purcell (NIH) and the sequences are published in genebank (AAB67036, see Yanagi, M., Purcell, R. H., Emerson, S. U. and Bukh, J. Proc. Natl. Acad. Sci. U.S.A. 94(16),8738-8743 (1997); AF054247, see Yanagi, M., St Claire, M., Shapiro, M., Emerson, S. U., Purcell, R. H. and Bukh, J, Virology 244 (1), 161-172. (1998)). […]

The target of the next assay is T1, NS3/4A H77C strain (Hepatitis C virus genotype 1a, UniProt P27958, C1454S).
T1 construct: DNA encoding the recombinant HCV NS3/4A protease complex (amino acid 1027 to 1711) for these strains; inferred from pET21b vector and Ni-NTA purification; made in house; host or cells: E. coli BL21 (DE3)
Briefly: Recombinant HCV NS3/4A protease complex FRET peptide assay, H77C strain. The class given is biochemical, HCV genotype 1a.
Text: as §1, §2

For another assay, the target named is T2, NS3/4A J4L6S strain (Hepatitis C virus genotype 1b, UniProt O92972, C1454S/C1711G).
T2 construct: DNA encoding the recombinant HCV NS3/4A protease complex (amino acid 1027 to 1711) for these strains; inferred from pET21b vector and Ni-NTA purification; made in house; host or cells: E. coli BL21 (DE3)
Briefly: Recombinant HCV NS3/4A protease complex FRET peptide assay, J4L6S strain. The format is biochemical, HCV genotype 1b.
Text: as §1, §2

Assay [1] deals with T3, porcine pancreatic elastase (Sus scrofa, UniProt P00772).
T3 construct: from tissue; host or cells: pancreas (from the enzyme's name only)
Briefly: Specificity assay, porcine pancreatic elastase. As to conditions: read-out: PPE. The format is biochemical. How it is done: (§3) The specificities of compounds of the present invention were determined against a variety of serine proteases: human leukocyte elastase, porcine pancreatic elastase and bovine pancreatic α-chymotrypsin and one cysteine protease: human liver cathepsin B. In all cases a 96-well plate format protocol using calorimetric […] (pNA) substrate specific for each enzyme was used as described previously (Patent WO 00/09543) with some modifications.
(§4) Each assay included a 1 h enzyme-inhibitor pre-incubation at RT followed by addition of substrate and hydrolysis to ˜30% conversion as measured on a Spectramax Pro microplate reader. Compound concentrations varied from 100 to 0.4 μM depending on their potency.
(§5) The final conditions and protocol for each assay was as reported previously (Patent WO 00/09543) with the inclusion of an additional assay: • 50 mM Tris-HCl pH 8, 0.5M Na2SO4, 50 mM NaCl, 0.1 mM EDTA, 3% DMSO, 0.01% Tween-20 with 133 μM succ-AAA-PNA and 20 nM Elastase
(§6) The percentage of inhibition was calculated using the formula: [1−((UVinh−UVblank)/(UVctl−UVblank))]×100

The target in the next assay is T4, human liver cathepsin B (Homo sapiens, UniProt P07858).
T4 construct: from tissue; host or cells: liver
Briefly: Specificity assay, human liver cathepsin B. The format is biochemical. How it is done:
as §3, §4, §5, §6

The structures appear in SMILES notation.

T2 sequence (O92972 1027-1711 C1454S/C1711G): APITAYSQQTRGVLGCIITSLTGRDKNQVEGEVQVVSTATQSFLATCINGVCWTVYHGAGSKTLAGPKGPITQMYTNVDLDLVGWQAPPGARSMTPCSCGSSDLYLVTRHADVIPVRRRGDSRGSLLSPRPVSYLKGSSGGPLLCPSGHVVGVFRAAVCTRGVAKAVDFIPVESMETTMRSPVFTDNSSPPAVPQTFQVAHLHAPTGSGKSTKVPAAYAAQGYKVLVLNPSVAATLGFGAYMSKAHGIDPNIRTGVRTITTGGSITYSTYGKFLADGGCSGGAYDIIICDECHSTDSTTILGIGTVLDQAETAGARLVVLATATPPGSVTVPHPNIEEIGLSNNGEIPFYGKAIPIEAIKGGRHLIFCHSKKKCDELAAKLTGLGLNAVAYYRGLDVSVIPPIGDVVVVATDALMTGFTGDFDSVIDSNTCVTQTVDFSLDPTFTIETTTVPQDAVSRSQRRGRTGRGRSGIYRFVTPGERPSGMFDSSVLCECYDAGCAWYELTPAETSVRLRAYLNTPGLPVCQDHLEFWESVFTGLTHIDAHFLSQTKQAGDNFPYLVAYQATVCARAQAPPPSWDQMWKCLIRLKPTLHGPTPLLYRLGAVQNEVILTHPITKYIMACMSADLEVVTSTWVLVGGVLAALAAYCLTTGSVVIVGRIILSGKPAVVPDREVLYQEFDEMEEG
NS3/4A BMS strain, sequence (P27958 1027-1711, stated change not applied): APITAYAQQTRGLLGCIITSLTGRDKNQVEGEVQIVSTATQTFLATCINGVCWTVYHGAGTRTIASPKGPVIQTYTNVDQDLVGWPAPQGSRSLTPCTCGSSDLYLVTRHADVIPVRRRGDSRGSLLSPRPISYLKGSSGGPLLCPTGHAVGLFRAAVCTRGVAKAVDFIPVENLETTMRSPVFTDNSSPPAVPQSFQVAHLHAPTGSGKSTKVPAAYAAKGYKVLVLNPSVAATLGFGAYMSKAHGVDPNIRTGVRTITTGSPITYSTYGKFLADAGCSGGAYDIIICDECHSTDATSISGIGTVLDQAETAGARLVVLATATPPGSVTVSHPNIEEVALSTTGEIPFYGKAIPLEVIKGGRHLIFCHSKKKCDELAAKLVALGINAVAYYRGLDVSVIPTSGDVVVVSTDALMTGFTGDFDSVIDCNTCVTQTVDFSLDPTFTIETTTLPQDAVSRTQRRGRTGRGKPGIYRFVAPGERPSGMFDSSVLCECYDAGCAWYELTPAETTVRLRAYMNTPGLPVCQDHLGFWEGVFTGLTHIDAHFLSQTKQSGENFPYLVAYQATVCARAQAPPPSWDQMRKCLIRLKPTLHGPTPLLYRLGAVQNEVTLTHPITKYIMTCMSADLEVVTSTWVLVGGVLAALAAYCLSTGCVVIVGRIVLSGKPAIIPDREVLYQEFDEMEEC
NS3/4A BMS strain, sequence (P27958 1027-1711, stated change not applied): as above
T1 sequence (P27958 1027-1657 C1454S): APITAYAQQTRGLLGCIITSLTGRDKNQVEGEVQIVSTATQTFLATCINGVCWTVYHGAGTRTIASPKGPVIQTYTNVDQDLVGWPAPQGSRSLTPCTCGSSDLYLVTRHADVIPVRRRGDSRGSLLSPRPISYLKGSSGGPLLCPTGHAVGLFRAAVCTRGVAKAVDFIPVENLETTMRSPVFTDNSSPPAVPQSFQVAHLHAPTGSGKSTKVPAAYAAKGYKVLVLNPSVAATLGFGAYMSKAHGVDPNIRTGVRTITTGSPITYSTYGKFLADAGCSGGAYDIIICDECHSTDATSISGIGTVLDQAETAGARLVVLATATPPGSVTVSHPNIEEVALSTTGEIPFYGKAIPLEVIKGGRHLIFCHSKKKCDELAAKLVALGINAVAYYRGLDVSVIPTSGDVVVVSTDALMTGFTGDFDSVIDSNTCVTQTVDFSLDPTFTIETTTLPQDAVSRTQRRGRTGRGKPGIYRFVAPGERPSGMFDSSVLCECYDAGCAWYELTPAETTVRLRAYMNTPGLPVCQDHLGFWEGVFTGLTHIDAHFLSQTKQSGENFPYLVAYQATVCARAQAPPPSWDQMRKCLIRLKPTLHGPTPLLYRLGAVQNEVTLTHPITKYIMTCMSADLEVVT
T1 sequence (P27958 1658-1711 partner, looked up, stated change not applied): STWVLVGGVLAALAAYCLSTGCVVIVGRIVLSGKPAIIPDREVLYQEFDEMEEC
T3 sequence (P00772 27-266): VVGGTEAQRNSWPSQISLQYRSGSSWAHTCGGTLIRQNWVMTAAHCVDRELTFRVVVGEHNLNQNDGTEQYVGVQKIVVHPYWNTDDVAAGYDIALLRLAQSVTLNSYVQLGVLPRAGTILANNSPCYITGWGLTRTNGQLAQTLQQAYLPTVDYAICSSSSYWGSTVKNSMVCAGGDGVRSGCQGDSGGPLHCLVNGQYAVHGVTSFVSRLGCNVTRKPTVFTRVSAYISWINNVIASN

With `C=CC1C[C@]1(NC(=O)[C@@H]1C[C@@H](Oc2cc(-c3ccccc3)nc3cc(OC)ccc23)CN1C(=O)C(NC(=O)OC(C)(C)C)C(C)(C)C)C(=O)NS(=O)(=O)c1ccc(NC(C)=O)cc1` (some centres unmarked) [Compound 58], the IC50 on NS3/4A BMS strain was 17 nM; on NS3/4A H77C strain it was 10 nM; on NS3/4A J4L6S strain, 8 nM; in assay [1], more than 100000 nM; against human liver cathepsin B, more than 100000 nM.
